“Also recorded” adds a separate entry of the source.
Key:
MG-63 cells = assay: Immunostaining of phosphorylated AKT and F-actin in LPA-treated osteosarcoma cells; assay type: cell-based, human; conditions: 100 nM LPA for 4 hours, serum-free MEM
Procedure: LPA receptors are G-protein-coupled receptors, and LPAR1 is known to activate three G proteins, Gαi/0, Gαq/11, and Gα12/13, and to activate a signal transduction system including a PI3K/AKT pathway. MG-63 cells were cultured with serum-free MEM medium overnight, then treated with 100 nM LPA for 4 hours, immunostained through a conventional method with an anti-phosphorylated AKT antibody (an antibody to detect phosphorylation of S473), rhodamine-labeled phalloidin (for binding to F actin), and Hoechst 33342 (for staining nuclei), and observed with a microscope (FIG. 3B). […] Although results are not shown herein, time-lapse analysis with a microscope was carried out to analyze effects of LPA on osteosarcoma cells, and it was observed that osteosarcoma cells formed numerous protrusions (pseudopodia) as a result of the LPA treatment.

[1] = tested on: MG-63, HuO9, or G-292 cells; assay: Transwell chamber migration ability of osteosarcoma cells with LPA as chemoattractant; assay type: cell-based, human; conditions: 4 to 6 hours, MG-63, HuO9, G-292
Procedure: Next, the influence of LPA on migration ability and invasive ability was analyzed (FIG. 3C). Analysis of migration ability was carried out by using a Transwell chamber (Corning Incorporated, 8.0 μm pore). In an insert, 1×10^5 MG-63, HuO9, or G-292 cells suspended in 0.3 mL of serum-free MEM medium were seeded with 10 nM LPA as a chemoattractant in 1.25 mL of serum-free MEM medium put in the lower chamber, left to stand for 4 to 6 hours and then fixed, and subjected to analysis of migration ability (LPA). Separately, cells after being pretreated with 100 nM Ki16425 (Santa Cruz Biotechnology, Inc.), which is an LPAR antagonist, for 1 hour were collected, seeded in an insert, and subjected to analysis of migration ability in the presence of 100 nM Ki16425 (LPA+Ki16425).

[2] = tested on: human glioblastoma cells Onda7, YKG-1, and 42-MG-BA; assay: Transwell chamber migration ability of glioblastoma cells with LPA; assay type: cell-based; conditions: 24 hours
Procedure: Accordingly, the effects of LPAR1 antagonists to suppress metastasis and cell proliferation are also expected to be exerted for glioma. In view of the fact that glioblastoma is the highest malignancy tumor among gliomas as described above, migration ability with addition of LPA was analyzed with glioblastoma cell strains. Analysis was performed to determine whether the mobility of glioblastoma cells is augmented in the presence of LPA. In a Transwell chamber, the human glioblastoma cells Onda7 (obtained from JCRB Cell Bank), YKG-1 (obtained from JCRB Cell Bank), and 42-MG-BA (obtained from DSMZ) were seeded at 1×10^5 cells each, with addition of 100 nM LPA as a migration factor to the underlying chamber, and 24 hours thereafter cells that migrated to the underlying chamber were stained with crystal violet and quantified. Before being collected, the cells were pretreated with 100 nM Ki16425, which is an LPAR antagonist, for 1 hour, and subjected to analysis of migration ability still in the presence of 100 nM Ki16425.

[3] = tested on: human glioblastoma cells Onda7, YKG-1, and 42-MG-BA; assay: Glioblastoma cell viability with LPAR1 antagonists, CellTiter-Gro; assay type: cell-based; conditions: different concentrations, 72 hours; Onda7, YKG-1, 42-MG-BA
Procedure: Next, examination was carried out to determine whether LPAR1 antagonists had effects on viabilities of glioblastoma cells. On a 96-well plate, 1500 to 3000 cells of each of the human glioblastoma cells Onda7, YKG-1, and 42-MG-BA were seeded and treated with any of the LPAR1 antagonists Ki16425, BMS-986020, and ONO-7300243 in different concentrations, and the cell viabilities 72 hours thereafter were determined with CellTiter-Gro reagent (FIG. 10A).

HuO9/Akaluc cells = assay: Lung metastasis mouse model, intravenously injected HuO9/Akaluc cells, bioluminescent imaging; assay type: in vivo
Procedure: Into each female SCID-beige mouse (C.B-lgh-1b/GbmsTac-Prkdc^scid-Lyst^bgN7, Charles River Laboratories Japan, Inc.), 1×10^6 MG-63/Akaluc/sgCTRL or MG-63/Akaluc/sgLPAR #1 cells were intravenously injected, 3 hours and 7 days after, 100 μL of 5 mM AkaLumine-HCL was intraperitoneally injected and in vivo luminescence imaging (bioluminescent imaging, BLI) was carried out. The BLI was carried out by using an IVIS imaging system (PerkinElmer, Inc.). […] On the day of intravenous injection of cells (Day 0), the both types of cells were captured in lungs to the same degree.
Next, effects of an LPAR1 antagonist was examined. Analysis with a mouse model was carried out by using ONO-7300243 (Cayman Chemical Company), which is one of LPAR1 inhibitors. […] In the experiment, ONO-7300243 was used at different doses of 10 mg/kg and 30 mg/kg.
The BLI was carried out for 1.5 to 3 hours, 1 day, and 2 days after the administration (FIG. 6B). Immediately after the administration, it was observed that HuO9/Akaluc cells were captured in lungs at any dose.

LPAR3 = biological target: T1, LPAR3 (Homo sapiens, UniProt Q9UBY5); conditions: cited from earlier work
T1 sequence (Q9UBY5 1-353): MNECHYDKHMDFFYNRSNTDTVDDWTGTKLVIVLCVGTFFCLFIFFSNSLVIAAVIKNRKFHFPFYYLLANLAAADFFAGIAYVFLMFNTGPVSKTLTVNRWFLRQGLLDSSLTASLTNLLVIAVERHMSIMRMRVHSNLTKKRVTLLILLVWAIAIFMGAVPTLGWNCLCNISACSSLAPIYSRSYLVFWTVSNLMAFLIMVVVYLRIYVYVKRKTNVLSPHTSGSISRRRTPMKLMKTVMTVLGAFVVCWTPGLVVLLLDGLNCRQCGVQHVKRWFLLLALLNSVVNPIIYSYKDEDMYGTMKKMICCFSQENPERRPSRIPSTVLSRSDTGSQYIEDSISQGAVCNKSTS

LPAR2 = LPAR2 (Homo sapiens, UniProt Q9HBW0); conditions: cited from earlier work
Chain of LPAR2 (Q9HBW0 whole entry, species assumed): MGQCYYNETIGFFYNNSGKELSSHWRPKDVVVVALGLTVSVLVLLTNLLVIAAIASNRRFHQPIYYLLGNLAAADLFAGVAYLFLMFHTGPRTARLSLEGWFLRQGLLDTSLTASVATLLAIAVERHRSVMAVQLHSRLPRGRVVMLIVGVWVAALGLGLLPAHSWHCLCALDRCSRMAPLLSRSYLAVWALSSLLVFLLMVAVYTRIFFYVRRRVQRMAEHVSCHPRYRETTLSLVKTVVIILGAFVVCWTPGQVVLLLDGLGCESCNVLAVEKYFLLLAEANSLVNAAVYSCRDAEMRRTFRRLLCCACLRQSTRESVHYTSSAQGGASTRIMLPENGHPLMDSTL

G-292 and MG-63 cells = assay: Cell viability / cytotoxicity of osteosarcoma cells with Ki16425 (FIG. 3E); assay type: cell-based, human
Procedure: (§1) In addition, analysis of invasive ability was carried out by using a Matrigel Invasion Chamber in the same manner as for FIG. 1C (FIG. 3D). […] Accordingly, the reduction in migration ability and invasive ability due to Ki16425 was confirmed not to be caused by cytotoxicity to the cells.

[4] = tested on: osteosarcoma cells MG-63, HuO9, and G-292; assay: Matrigel Invasion Chamber invasive ability of osteosarcoma cells with platelet releasate; assay type: cell-based, human; conditions: cells treated with Ki16425 in advance (100 nM), platelet releasate in underlying chamber, 22 to 24 hours
Procedure: The osteosarcoma cells MG-63, HuO9, and G-292 were each seeded in an insert (upper chamber) of a Matrigel Invasion Chamber (Corning Incorporated) at 1.5×10^5 cells/0.5 mL with the platelet releasate put in the lower chamber, and left to stand at 37° C. for 22 to 24 hours, and then cells on the top surface of the insert were completely wiped away, fixation was performed with 4% paraformaldehyde, and cells on the bottom surface of the membrane of the insert, i.e., invaded cells were stained with 1% crystal violet (FIG. 1B).
as §1

LPAR1 = LPAR1 (Homo sapiens, UniProt Q92633); conditions: cited from earlier work
Chain of LPAR1 (Q92633 whole entry, species assumed): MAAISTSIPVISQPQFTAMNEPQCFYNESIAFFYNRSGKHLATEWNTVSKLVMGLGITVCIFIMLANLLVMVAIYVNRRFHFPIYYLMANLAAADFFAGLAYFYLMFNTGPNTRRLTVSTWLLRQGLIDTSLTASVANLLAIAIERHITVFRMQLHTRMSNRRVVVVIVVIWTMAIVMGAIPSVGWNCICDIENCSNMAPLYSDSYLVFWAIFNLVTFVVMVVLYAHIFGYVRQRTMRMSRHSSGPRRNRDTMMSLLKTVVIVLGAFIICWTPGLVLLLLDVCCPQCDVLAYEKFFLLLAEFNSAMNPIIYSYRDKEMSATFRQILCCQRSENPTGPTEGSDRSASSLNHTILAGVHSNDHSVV

Onda7 cells = assay: Glioblastoma intracranial xenograft model (Onda7 with Akaluc luciferase), IVIS imaging; assay type: in vivo, mouse; conditions: oral 50 mg/kg or 100 mg/kg, 5 days on/2 days off from 3 weeks after transplantation; from 2 weeks after initiation, even for 50 mg/kg
Procedure: Examination was carried out to determine whether an LPAR1 antagonist exerts antitumor effect even for glioblastoma. Into each female SCID-beige mouse, 2×10^5 Onda7 cells with Akaluc luciferase introduced therein were intracranially transplanted. Three weeks after the transplantation, oral administration according to a dosing schedule of continuous administration of the LPAR1 antagonist BMS-986020 of 50 mg/kg or 100 mg/kg for 5 consecutive days and withdrawal for 2 days was initiated (FIG. 11A). For tumor volume, the enzymatic activity of AkaLuc luciferase stably expressed in Onda7 cells was quantified with an IVIS imaging system (FIG. 11B).

osteosarcoma cells G-292 = assay: Osteosarcoma G-292 subcutaneous xenograft model, tumor volume; assay type: in vivo; conditions: oral 30 mg/kg, 5 consecutive days and withdrawal for 2 days from Day 1, from Day 14, SCID-beige mouse
Procedure: Into each female SCID-beige mouse, 8.2×10^5 cells of the osteosarcoma cells G-292 were subcutaneously transplanted (Day 0), and on the day after the transplantation (Day 1) oral administration according to a dosing schedule of continuous administration of the LPAR1 antagonist BMS-986020 of 30 mg/kg for 5 consecutive days and withdrawal for 2 days was initiated (FIG. 8A). The proliferation of tumor was analyzed by measuring the major axis and minor axis of tumor and calculating the tumor volume as major axis (mm)×[minor axis (mm)]^2×½.

Molecule: lysophosphatidic acid [LPA]
- phosphorylated AKT (S473) (MG-63 cells): Activated AKT was found
- migration ability (effect of LPA) ([1]; 10 nM LPA as chemoattractant): migration ability largely enhanced
- migration ability (effect of LPA) ([2]; 100 nM LPA as migration factor): migration ability was largely enhanced

Molecule: COc1cc(C(=O)N(CCCc2ccccc2)Cc2ccc(CC(=O)O)cc2)cc(OC)c1C [ONO-7300243]
- cell viabilities [3]: Reduced cell viabilities
- Total Flux measured with the IVIS (HuO9/Akaluc cells; Day 1, 30 mg/kg administration group vs solvent administration group): significant difference
- Total Flux measured with the IVIS (HuO9/Akaluc cells; Day 2, 10 mg/kg administration group vs 30 mg/kg administration group): significant difference
- Total Flux measured with the IVIS (HuO9/Akaluc cells; day of injection of cells, among the groups): no significant difference
- osteosarcoma cells captured in lungs (BLI) / lung metastasis (HuO9/Akaluc cells; oral 10 mg/kg and 30 mg/kg before i.v. HuO9/Akaluc cells, a day or two later, vs solvent administration group): lung metastasis is suppressed; also recorded: reduction of osteosarcoma cells captured in lungs

Molecule: Cc1noc(-c2ccc(CSCCC(=O)O)cc2)c1NC(=O)OC(C)c1ccccc1Cl (stereo not drawn) [Ki16425]
- cell viabilities [3]: Reduced cell viabilities
- inhibitory effect to LPAR3 (LPAR3): exhibits inhibitory effect
- migration ability ([1]; 100 nM Ki16425 (1 hour pretreatment and during assay), 10 nM LPA in lower chamber): cancellation of the effects of LPA; also recorded: largely reduced migration ability
- inhibitory effect to LPAR2 (LPAR2): exhibits inhibitory effect
- cytotoxicity (G-292 and MG-63 cells; 100 nM, 4 to 6 hours (migration) or 22 to 24 hours (invasion)): no cytotoxicity was found
- cell viabilities (G-292 and MG-63 cells; cultured for 72 hours, Ki16425 at 500 nM or more, G-292 and MG-63): reduced cell viabilities
- invasive ability [4]: cancellation of the effects of platelet releasate; also recorded: largely reduced invasive ability
- migration ability ([2]; 100 nM Ki16425 (1 hour pretreatment and during assay), 100 nM LPA): largely reduced migration ability
- inhibitory effect to LPAR1 (LPAR1): exhibits inhibitory effect

Molecule: Cc1noc(-c2ccc(-c3ccc(C4(C(=O)O)CC4)cc3)cc2)c1NC(=O)O[C@H](C)c1ccccc1 [BMS-986020]
- cell viabilities [3]: Reduced cell viabilities
- proliferation of glioblastoma cells / relative tumor volume (Onda7 cells): almost comparable to that at the transplantation
- tumor volume / tumor proliferation (osteosarcoma cells G-292; 30 mg/kg): significant tumor proliferation-suppressing effect
- tumor volume / tumor proliferation (osteosarcoma cells G-292; listed as BMS986020, 30 mg/kg): tumor proliferation is suppressed

— patent publication US20240285587A1, “NOVEL THERAPEUTIC AGENT THAT SUPPRESSES METASTASIS AND PROLIFERATION OF OSTEOSARCOMA AND GLIOMA” (JAPANESE FOUNDATION FOR CANCER RESEARCH, priority 2021, published 2024)
